Data on six compounds can be found in patent publication US9936701B2, “Herbicidal compounds” (Syngenta Participations AG, priority 2013, dated 2018).

Each structure is given as a SMILES string.

The subject of one assay is a variety of test species. In words: Pre-emergence herbicidal activity (glasshouse, sprayed one day after sowing, evaluated after 13 days). The conditions noted are these: ABUTH, application pre-emergence, rate 1000 g/Ha, scale 0-5. The assay is classed as in vivo. Further details: key: 5=total damage to plant; 0=no damage to plant. Summed up:
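Seeds sown in standard soil in pots, held one day in glasshouse (24/16 °C day/night, 14 h light, 65% humidity), then sprayed with aqueous solution of compound formulated in acetone/water 50:50 with 0.5% Tween 20. Grown on under same conditions, watered twice daily; damage scored after 13 days (0 = none, 5 = total).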
As to `CC1=C(Cl)C(=O)N(c2noc(C(C)(C)C)c2C#N)C1` [A102], the “Pre-emergence herbicidal damage score, ABUTH” value was 5.
The same measure, in the same setting: for `COC1=C(Cl)C(=O)N(c2cc(C(C)(C)C)on2)C1O` (centres unmarked) [B1] the value was 5; for `CNC1=C(Cl)C(=O)N(c2cc(C(C)(C)C)on2)C1O` (centres unmarked) [C1], 3; for `CN(C)C1=C(Cl)C(=O)N(c2cc(C(C)(C)C)on2)C1O` (centres unmarked) [C2], 1.
The same measure, in the same setting: for `C=C(C)CNC1=C(Cl)C(=O)N(c2cc(C(C)(C)C)on2)C1O` (centres unmarked) [C3] the value was 5.
`CC(C)(C)c1cc(N2C(=O)C(Cl)=C(NCC3CC3)C2O)no1` (centres unmarked) [C4]: the “Pre-emergence herbicidal damage score, ABUTH” value came out at 5.

Still in this assay, the particulars now being: ALOMY, application pre-emergence, rate 1000 g/Ha, scale 0-5.
As to `CC1=C(Cl)C(=O)N(c2noc(C(C)(C)C)c2C#N)C1` [A102], the “Pre-emergence herbicidal damage score, ALOMY” value worked out at 4.
For the compound `COC1=C(Cl)C(=O)N(c2cc(C(C)(C)C)on2)C1O` (centres unmarked) [B1], the “Pre-emergence herbicidal damage score, ALOMY” value worked out at 4.
Regarding `CNC1=C(Cl)C(=O)N(c2cc(C(C)(C)C)on2)C1O` (centres unmarked) [C1], the “Pre-emergence herbicidal damage score, ALOMY” value is given as 2.
For the compound `CN(C)C1=C(Cl)C(=O)N(c2cc(C(C)(C)C)on2)C1O` (centres unmarked) [C2], the “Pre-emergence herbicidal damage score, ALOMY” value turned out to be 1.
With `C=C(C)CNC1=C(Cl)C(=O)N(c2cc(C(C)(C)C)on2)C1O` (centres unmarked) [C3], the “Pre-emergence herbicidal damage score, ALOMY” value is listed as 3.
With `CC(C)(C)c1cc(N2C(=O)C(Cl)=C(NCC3CC3)C2O)no1` (centres unmarked) [C4], the “Pre-emergence herbicidal damage score, ALOMY” value was determined as 2.

The assay is the same for the next values; noted with them: AMARE, application pre-emergence, rate 1000 g/Ha, scale 0-5.
Consider `CC1=C(Cl)C(=O)N(c2noc(C(C)(C)C)c2C#N)C1` [A102], for which the “Pre-emergence herbicidal damage score, AMARE” value turned out to be 5.
For `COC1=C(Cl)C(=O)N(c2cc(C(C)(C)C)on2)C1O` (centres unmarked) [B1], the “Pre-emergence herbicidal damage score, AMARE” value is listed as 5.
Regarding `CNC1=C(Cl)C(=O)N(c2cc(C(C)(C)C)on2)C1O` (centres unmarked) [C1], the “Pre-emergence herbicidal damage score, AMARE” value is recorded as 5.
In the case of `C=C(C)CNC1=C(Cl)C(=O)N(c2cc(C(C)(C)C)on2)C1O` (centres unmarked) [C3], the “Pre-emergence herbicidal damage score, AMARE” value is 5.
For `CC(C)(C)c1cc(N2C(=O)C(Cl)=C(NCC3CC3)C2O)no1` (centres unmarked) [C4], the “Pre-emergence herbicidal damage score, AMARE” value is on record as 5.

The assay is the same for the next values; noted with them: ECHCG, application pre-emergence, rate 1000 g/Ha, scale 0-5.
For `CC1=C(Cl)C(=O)N(c2noc(C(C)(C)C)c2C#N)C1` [A102], the “Pre-emergence herbicidal damage score, ECHCG” value is 4.
On the same count and under the same terms, the same measure for `COC1=C(Cl)C(=O)N(c2cc(C(C)(C)C)on2)C1O` (centres unmarked) [B1]: 5.
Consider `CNC1=C(Cl)C(=O)N(c2cc(C(C)(C)C)on2)C1O` (centres unmarked) [C1], for which the “Pre-emergence herbicidal damage score, ECHCG” value was 4.
Regarding `CN(C)C1=C(Cl)C(=O)N(c2cc(C(C)(C)C)on2)C1O` (centres unmarked) [C2], the “Pre-emergence herbicidal damage score, ECHCG” value is on record as 2.
As to `C=C(C)CNC1=C(Cl)C(=O)N(c2cc(C(C)(C)C)on2)C1O` (centres unmarked) [C3], the “Pre-emergence herbicidal damage score, ECHCG” value is on record as 4.
Still for that read-out and setting: for `CC(C)(C)c1cc(N2C(=O)C(Cl)=C(NCC3CC3)C2O)no1` (centres unmarked) [C4] the value was 5.

Still in this assay, the particulars now being: SETFA, application pre-emergence, rate 1000 g/Ha, scale 0-5.
`CC1=C(Cl)C(=O)N(c2noc(C(C)(C)C)c2C#N)C1` [A102]: the “Pre-emergence herbicidal damage score, SETFA” value is given as 5.
As for `COC1=C(Cl)C(=O)N(c2cc(C(C)(C)C)on2)C1O` (centres unmarked) [B1], the “Pre-emergence herbicidal damage score, SETFA” value is 3.
Take `CNC1=C(Cl)C(=O)N(c2cc(C(C)(C)C)on2)C1O` (centres unmarked) [C1]: the “Pre-emergence herbicidal damage score, SETFA” value was 4.
As to `CN(C)C1=C(Cl)C(=O)N(c2cc(C(C)(C)C)on2)C1O` (centres unmarked) [C2], the “Pre-emergence herbicidal damage score, SETFA” value turned out to be 1.
In the case of `C=C(C)CNC1=C(Cl)C(=O)N(c2cc(C(C)(C)C)on2)C1O` (centres unmarked) [C3], the “Pre-emergence herbicidal damage score, SETFA” value worked out at 3.
On to `CC(C)(C)c1cc(N2C(=O)C(Cl)=C(NCC3CC3)C2O)no1` (centres unmarked) [C4], for which the “Pre-emergence herbicidal damage score, SETFA” value was found to be 4.

Staying with this assay, now noted: ZEAMX, application pre-emergence, rate 1000 g/Ha, scale 0-5.
On to `CC1=C(Cl)C(=O)N(c2noc(C(C)(C)C)c2C#N)C1` [A102], for which the “Pre-emergence herbicidal damage score, ZEAMX” value amounted to 3.
As for `COC1=C(Cl)C(=O)N(c2cc(C(C)(C)C)on2)C1O` (centres unmarked) [B1], the “Pre-emergence herbicidal damage score, ZEAMX” value was 4.
For the compound `CNC1=C(Cl)C(=O)N(c2cc(C(C)(C)C)on2)C1O` (centres unmarked) [C1], the “Pre-emergence herbicidal damage score, ZEAMX” value is on record as 1.
Take `CN(C)C1=C(Cl)C(=O)N(c2cc(C(C)(C)C)on2)C1O` (centres unmarked) [C2]: the “Pre-emergence herbicidal damage score, ZEAMX” value turned out to be 1.
Regarding `C=C(C)CNC1=C(Cl)C(=O)N(c2cc(C(C)(C)C)on2)C1O` (centres unmarked) [C3], the “Pre-emergence herbicidal damage score, ZEAMX” value is on record as 2.
Consider `CC(C)(C)c1cc(N2C(=O)C(Cl)=C(NCC3CC3)C2O)no1` (centres unmarked) [C4], for which the “Pre-emergence herbicidal damage score, ZEAMX” value is listed as 3.

For a further assay, the system named is a variety of test species. Briefly: Post-emergence herbicidal activity (glasshouse, sprayed after 8 days cultivation, evaluated after 13 days). The format is in vivo. On the set-up: key: 5=total damage to plant; 0=no damage to plant. The conditions noted are these: Abutilon theophrasti, rate 1000 g/Ha, scale 0-5. Summed up:
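Pot-grown plants, 8 days after sowing, were sprayed with compound formulated in acetone/water (50:50) with 0.5% Tween 20. Glasshouse conditions 24/16° C day/night, 14 h light, 65% humidity; damage scored after 13 days on a 0 (none) to 5 (total) scale.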
As for `CC1=C(Cl)C(=O)N(c2noc(C(C)(C)C)c2C#N)C1` [A102], the “ABUTH (Abutilon theophrasti) damage score, application post-emergence” value (from here on “ABUTH … application post-emergence”) is 5.
On to `COC1=C(Cl)C(=O)N(c2cc(C(C)(C)C)on2)C1O` (centres unmarked) [B1], for which the “ABUTH … application post-emergence” value is 5.
Take `CNC1=C(Cl)C(=O)N(c2cc(C(C)(C)C)on2)C1O` (centres unmarked) [C1]: the “ABUTH … application post-emergence” value is reported as 5.
Regarding `CN(C)C1=C(Cl)C(=O)N(c2cc(C(C)(C)C)on2)C1O` (centres unmarked) [C2], the “ABUTH … application post-emergence” value came out at 5.
Turning to `C=C(C)CNC1=C(Cl)C(=O)N(c2cc(C(C)(C)C)on2)C1O` (centres unmarked) [C3], the “ABUTH … application post-emergence” value is 5.
As to `CC(C)(C)c1cc(N2C(=O)C(Cl)=C(NCC3CC3)C2O)no1` (centres unmarked) [C4], the “ABUTH … application post-emergence” value stood at 5.

The same assay, now with this note: Alopecurus myosuroides, rate 1000 g/Ha, scale 0-5.
As for `CC1=C(Cl)C(=O)N(c2noc(C(C)(C)C)c2C#N)C1` [A102], the “ALOMY (Alopecurus myosuroides) damage score, application post-emergence” value (“ALOMY … application post-emergence” for short) is 5.
Take `COC1=C(Cl)C(=O)N(c2cc(C(C)(C)C)on2)C1O` (centres unmarked) [B1]: the “ALOMY … application post-emergence” value was found to be 5.
On the same count and under the same terms, for `CNC1=C(Cl)C(=O)N(c2cc(C(C)(C)C)on2)C1O` (centres unmarked) [C1] the value was 4.
Regarding `CN(C)C1=C(Cl)C(=O)N(c2cc(C(C)(C)C)on2)C1O` (centres unmarked) [C2], the “ALOMY … application post-emergence” value is listed as 4.
On to `C=C(C)CNC1=C(Cl)C(=O)N(c2cc(C(C)(C)C)on2)C1O` (centres unmarked) [C3], for which the “ALOMY … application post-emergence” value was 4.
Take `CC(C)(C)c1cc(N2C(=O)C(Cl)=C(NCC3CC3)C2O)no1` (centres unmarked) [C4]: the “ALOMY … application post-emergence” value is given as 5.

Staying with this assay, now noted: Amaranthus retroflexus, rate 1000 g/Ha, scale 0-5.
As for `CC1=C(Cl)C(=O)N(c2noc(C(C)(C)C)c2C#N)C1` [A102], the “AMARE (Amaranthus retroflexus) damage score, application post-emergence” value (“AMARE … application post-emergence” for short) is 5.
Regarding `COC1=C(Cl)C(=O)N(c2cc(C(C)(C)C)on2)C1O` (centres unmarked) [B1], the “AMARE … application post-emergence” value was 5.
For `CNC1=C(Cl)C(=O)N(c2cc(C(C)(C)C)on2)C1O` (centres unmarked) [C1], the “AMARE … application post-emergence” value is 5.
For `CN(C)C1=C(Cl)C(=O)N(c2cc(C(C)(C)C)on2)C1O` (centres unmarked) [C2], the “AMARE … application post-emergence” value is recorded as 5.
Turning to `C=C(C)CNC1=C(Cl)C(=O)N(c2cc(C(C)(C)C)on2)C1O` (centres unmarked) [C3], the “AMARE … application post-emergence” value is 5.
Same read-out and setting: the same measure for `CC(C)(C)c1cc(N2C(=O)C(Cl)=C(NCC3CC3)C2O)no1` (centres unmarked) [C4]: 5.

Still in this assay, the particulars now being: Echinochloa crus-galli, rate 1000 g/Ha, scale 0-5.
Turning to `CC1=C(Cl)C(=O)N(c2noc(C(C)(C)C)c2C#N)C1` [A102], the “ECHCG (Echinochloa crus-galli) damage score, application post-emergence” value (“ECHCG … application post-emergence” for short) turned out to be 5.
`COC1=C(Cl)C(=O)N(c2cc(C(C)(C)C)on2)C1O` (centres unmarked) [B1]: the “ECHCG … application post-emergence” value was found to be 5.
`CNC1=C(Cl)C(=O)N(c2cc(C(C)(C)C)on2)C1O` (centres unmarked) [C1]: the “ECHCG … application post-emergence” value amounted to 5.
In the case of `CN(C)C1=C(Cl)C(=O)N(c2cc(C(C)(C)C)on2)C1O` (centres unmarked) [C2], the “ECHCG … application post-emergence” value was found to be 5.
Regarding `C=C(C)CNC1=C(Cl)C(=O)N(c2cc(C(C)(C)C)on2)C1O` (centres unmarked) [C3], the “ECHCG … application post-emergence” value worked out at 5.
On to `CC(C)(C)c1cc(N2C(=O)C(Cl)=C(NCC3CC3)C2O)no1` (centres unmarked) [C4], for which the “ECHCG … application post-emergence” value is given as 5.

Staying with this assay, now noted: Setaria faberi, rate 1000 g/Ha, scale 0-5.
With `CC1=C(Cl)C(=O)N(c2noc(C(C)(C)C)c2C#N)C1` [A102], the “SETFA (Setaria faberi) damage score, application post-emergence” value is reported as 5.
For the compound `COC1=C(Cl)C(=O)N(c2cc(C(C)(C)C)on2)C1O` (centres unmarked) [B1], the “SETFA (Setaria faberi) damage score, application post-emergence” value was 5.
Still for that read-out and setting: the same measure for `CNC1=C(Cl)C(=O)N(c2cc(C(C)(C)C)on2)C1O` (centres unmarked) [C1]: 4.
Still for that read-out and setting: for `CN(C)C1=C(Cl)C(=O)N(c2cc(C(C)(C)C)on2)C1O` (centres unmarked) [C2] the value was 4; for `C=C(C)CNC1=C(Cl)C(=O)N(c2cc(C(C)(C)C)on2)C1O` (centres unmarked) [C3], 5; for `CC(C)(C)c1cc(N2C(=O)C(Cl)=C(NCC3CC3)C2O)no1` (centres unmarked) [C4], 5.

Staying with this assay, now noted: Zea mays, rate 1000 g/Ha, scale 0-5.
For the compound `CC1=C(Cl)C(=O)N(c2noc(C(C)(C)C)c2C#N)C1` [A102], the “ZEAMX (Zea mays) damage score, application post-emergence” value turned out to be 4.
Turning to `COC1=C(Cl)C(=O)N(c2cc(C(C)(C)C)on2)C1O` (centres unmarked) [B1], the “ZEAMX (Zea mays) damage score, application post-emergence” value was found to be 5.
Still for that read-out and setting: the same measure for `CNC1=C(Cl)C(=O)N(c2cc(C(C)(C)C)on2)C1O` (centres unmarked) [C1]: 1; for `CN(C)C1=C(Cl)C(=O)N(c2cc(C(C)(C)C)on2)C1O` (centres unmarked) [C2]: 3; for `C=C(C)CNC1=C(Cl)C(=O)N(c2cc(C(C)(C)C)on2)C1O` (centres unmarked) [C3]: 2.
Still for that read-out and setting: the same measure for `CC(C)(C)c1cc(N2C(=O)C(Cl)=C(NCC3CC3)C2O)no1` (centres unmarked) [C4]: 4.
